{
  "source": "patent US20190328884A1",
  "about": "“COMPOSITIONS AND METHODS OF THEIR USE” (Chemic Laboratories, Inc., priority 2018, published 2019)",
  "origin": "cited, not measured here",
  "conditions": "in vivo",
  "data": [
    {"smiles": "NC(=O)N1c2ccccc2C=Cc2ccccc21", "note": "[carbamezepine]", "values": [
      {"measurement": "decrease in white blood cell count", "result": 25, "unit": "%"},
      {"measurement": "increase in the risk of blood dyscrasias", "result": "five- to eight"},
      {"measurement": "patients shown to have a 25% decrease in their white blood cell count", "result": 7, "unit": "%"}
    ]}
  ]
}
